PubChem BioAssay AID2738 (Broad Institute, 2010)
The source made the active and inactive calls.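 The calls were made as follows: active = IC50 at or below ten times the top tested concentration; inconclusive = flat fit at 30 to 70% inhibition, or invalid poor fit; inactive = IC50 beyond ten times the top tested dose.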

Biological target: POS-1 (Caenorhabditis elegans) binding to mex-3 RNA
Assay: inhibitors of POS-1/mex-3 RNA binding, dose response, biochemical, fluorescence polarization, up to 135 µM (AID 2738)
Settings: POS-1-MBP / FITC mex-3 RNA

O=c1c(O)cccc2cc(O)c(O)c(O)c12
IC50: 11.9 µM

Oc1ccc(CCNc2c3ccccc3nc3ccccc23)cc1O
IC50: > 135 µM (inactive)

CCCCN(C)C(=O)CCC(=O)NNc1nc2ccccc2c2nc(C)nn12
IC50: 62.3 µM

N=c1c(C(=O)NC2CCCCC2)cc2c(=O)n3ccccc3nc2n1Cc1cccnc1
IC50: > 350 µM (inactive)

Cc1ccc(N2C(=O)NC(=O)/C(=C\c3cc(C)n(-c4ccc(C(=O)O)cc4)c3C)C2=O)cc1
IC50: > 135 µM (inactive)

O=CN/N=C/c1c(O)ccc2ccccc12
IC50: 22 µM

CCN(CC)c1ccc(/C=C2\C(=O)NC(=S)N(c3ccc(OC)cc3OC)C2=O)o1
IC50: > 135 µM (inactive)

CC1=C(C(=O)OCc2ccccc2)C(c2ccccc2[N+](=O)[O-])NC(=O)N1C (stereo not given)
IC50: 25.6 µM

CCc1ccccc1N1C(=O)/C(=C\c2ccc(N3CCN(C)CC3)o2)C(=O)NC1=S
IC50: > 135 µM (inactive)

COc1ccc(-c2cn[nH]c2-c2ccc(OCC(=O)NN)cc2O)cc1OC
IC50: > 135 µM (inactive)

O=C(NNC(=O)c1ccccc1[N+](=O)[O-])c1csc(N2CCOCC2)n1
IC50: 119 µM

COCCCNC(=O)CCC(=O)NNc1nc2ccccc2c2nc(C)nn12
IC50: 8.56 µM

Cc1nc2ccccc2c(=O)n1/N=C/c1ccc(O)c(O)c1O
IC50: 16.9 µM

Cc1ncc(CO)c(/C=N/NC(=O)c2cc(Br)ccc2O)c1O
IC50: 51.2 µM

NC(CO)C(=O)NNCc1ccc(O)c(O)c1O (stereo not given)
IC50: > 135 µM (inactive)

CCN(CC)CCCNC(=O)CCC(=O)NNc1nc2ccccc2c2nc(C)nn12
IC50: 2.2 µM

Cn1ncc2c(NNC(=O)Cc3ccccc3)ncnc21
IC50: 127 µM

ON=C1/C(=N\O)CC2(C/C1=N/O)OCCO2
IC50: > 135 µM (inactive)

CCOC(=O)c1cc(CC)sc1/N=C/c1c(O)[nH]c(=S)[nH]c1=O
IC50: 45.5 µM

CCN(CC)c1ccc(/C=C2\C(=O)NC(=S)N(C)C2=O)o1
IC50: > 135 µM (inactive)
